Data on 1 molecule can be found in patent US20240172750A1, “5-Fluoro-4-Imino-3-Methyl-1-Tosyl-3,4-Dihydropyrimidin-2(1H)-One for Controlling Plant Diseases” (Adama Makhteshim Ltd., priority 2021, published 2024).

The test system of data set [1] is soybean seedlings cv RAS 04. As to conditions: in vivo.
Method: (§1) Treated or untreated soybean seeds were allowed to dry under laminar flow for 24 h before sowing.
Plastic Box of 500 cc were filled with 250 ml extra fine (vermiculite up to 2 5 cm of the top 3 boxes per treatment. 50 ml of sterilized soybean seeds previously inoculated with Sclerotinia sclerotiorum (strain Sscl wt) grounded and mixed with XF vermiculite were spread over the 250 ml vermiculite. Same was done with the non-inoculated seeds serving as a reference for the germination test.
The inoculum was covered with 100 ml (1 cm) of XF vermiculite, and then 9 untreated or treated 9 soybean seeds were sown in each box. Seeds were covered with 150 ml (1.5 cm) of XF vermiculite. The substrate was moistened with 200 ml of tap water and then weekly once with tap water and once with a 0 5 g/l nutrients solution (Plant Prod, Ltd N P K 20 20 20 and micronutrients). The lid was punctured and then placed on each box for 5 days to maintain saturated humidity. Boxes were placed in a climatic chamber with a photoperiod of 16 h light/8 h darkness, 2424° C. day/1818° C. night and a relative humidity of 85.
Phytotoxicity assessments were carried out checking analyzing the following parameters: • a. Rate of emergence of soybean seedlings after 7 days post sowing dps. • b. General development (pictures) of the aerial part of the soybean plants after 3 weeks of incubation
Data set [2] concerns soybean seedlings cv RAS 04. As to conditions: in vivo. The source holds these as a separate data set.
Method: Disinfected seed surface of the soybean cultivar RAS 04 from RAGT were treated with the laboratory seed dressing equipment called Bol Hégé with the following products: • ADM 00050 F 1 A (500 SC) at 0.002-0.005-0.01-0.02 and 0.05 L/100 Kg seeds (1-2.5-5-10-25 g ai/100 Kg seeds), without coating agent. • Vibrance duo (25+25 g ai/L of Fludioxonil and Sedaxane SC) at 0.2 L/100 Kg seeds, corresponding to 5+5 g ai/100 Kg seeds of Fludioxonil and Sedaxane • Santhal (465 g ai/L of Metalaxyl-M (Mefenoxam) EC) at 0.064 L/100 Kg seeds (3 g ai/100 Kg seeds of Metalaxyl-M=Mefenoxam) without coating agent • Sterile distilled water Untreated Control, without coating agent
as §1
Plastic Box of 500 cc were filled with 250 ml extra fine (vermiculite up to 2 5 cm of the top 3 boxes per treatment. 50 ml of sterilized soybean seeds previously inoculated with Rhizoctonia solani (strain RsolAG 2 2) grounded and mixed with XF vermiculite were spread over the 250 ml vermiculite. Same was done with the non-inoculated seeds serving as a reference for the germination test.
The inoculum was covered with 100 ml (1 cm) of XF vermiculite, and then 9 untreated or treated 9 soybean seeds were sown in each box. Seeds were covered with 150 ml (1.5 cm) of XF vermiculite. […]

Each structure is given as a SMILES string. Like-named read-outs stand apart in the source and are kept apart here.

Regarding `COCC(=O)N(c1c(C)cccc1C)[C@H](C)C(=O)OC` [Metalaxyl-M], the “Seedling emergence rate (% of the total)” value in data set [1] and in data set [2] was 77.8 +/− 6.4a % of the total throughout.
